# Test results published in US11097023B1, “Pre-filled syringe containing sugammadex” (Par Pharmaceutical, Inc., priority 2020, dated 2021).
# Assays:
# [1] = Thermal-forced degradation of sugammadex sodium (Example V); assay type: physicochemical; conditions: solution in WFI, 60° C.
# Description: To confirm that the impurities observed in Example III were at least in part a result of thermal degradation, sugammadex sodium as a solution in WFI was subjected to an elevated temperature of 60° C. for ten days. S-oxide diastereomer-1 impurity, s-oxide diastereomer-2 impurity, impurity at ˜1.12 RRT, mono chloro impurity, unknown impurities, and mono hydroxyl impurity concentrations were measured using HPLC technique as described in Example VII after the first, third, fifth, and tenth day.
# (§1) For the following procedure, amber-colored glassware was used for all preparations. In addition, because sugammadex sodium is markedly hygroscopic when exposed to air at room temperature and when exposed to humidity, a relative humidity of less than 40% RH was maintained during weighing.
# (§2) First, a buffer solution having a pH of 2.0 was prepared by weighing and transferring about 4.08 g of potassium dihydrogen phosphate (AR grade of equivalent) into 1000 mL water (HPLC Grade or Milli-Q) and mixing. The pH of the buffer solution was adjusted to 2.0±0.05 with concentrated ortho-phosphoric acid (HPLC grade or equivalent) and mixed well.
# (§3) A mobile phase A was then prepared by transferring 950 mL of the buffer solution and 50 mL of methanol (HPLC grade or equivalent) into a bottle, mixing, and sonicating to degas. A mobile phase B was also prepared by transferring 300 mL of the buffer solution and 700 mL of acetonitrile (HPLC grade or equivalent) into a bottle, mixing, and sonicating to degas.
# (§4) A standard solution (50 ppm) was also prepared by weighing and transferring 27.2 mg of sugammadex sodium standard into a 50 mL amber color volumetric flask. About 30 mL of 100% water (HPLC Grade or Milli-Q) was added, and the mixture was sonicated to dissolve. The solution was made up to the mark with 100% water (HPLC Grade or Milli-Q) and mixed well. Then, 5.0 mL of this solution was transferred to 50 mL amber color volumetric flasks, made up to the mark with 100% water (HPLC Grade or Milli-Q), and mixed well.
# (§5) To prepare a sensitivity solution (5 ppm), 5.0 mL of the standard solution was transferred to a 50 mL amber volumetric flask, made-up to the mark with 100% water (HPLC Grade or Milli-Q), and mixed well.
# (§6) A placebo solution was also prepared by weighing and transferring 1.0 g of placebo into a 20 mL amber color volumetric flask, diluting to 20 mL with 100% water (HPLC Grade or Milli-Q), and mixing well.
# (§7) A sample solution (5000 ppm) was also prepared by weighing and transferring 1.0 g of the sample to be analyzed into a 20 mL amber color volumetric flask, diluting to 20 mL with 100% water (HPLC Grade or Milli-Q), and mixing well.
# (§8) When performing the chromatographic procedure, for initial samples, two samples were prepared in duplicate. For stability samples, a single sample was prepared. In addition, any peak due to blank and/or placebo was disregarded, any peak below LOQ level was disregarded, and any peak corresponding to mono chloro impurity was disregarded.
# (§9) The percent impurity was then calculated as follows:
# (§10) [formula] where: A(Spl)=Peak response of impurity obtained from sample solution A(Std)=Average peak response of sugammadex from the standard solution Wt(Std)=Weight (mg) of sugammadex working standard. Wt(Spl)=Weight (g) of Sample LC=Label Claim (100 mg/ml sugammadex) D=Density of sample (mg/ml) P=Potency of the standard (Anhydrous basis+Solvent free) WC=Water content of sugammadex working standard. 2002.12=Molecular weight of sugammadex 2178.01=Molecular weight of sugammadex sodium
# (§11) Total impurities were calculated by adding all known impurities (excluding mono hydroxy impurity) and all unknown impurities.
# [2] = Oxidative-forced degradation of sugammadex sodium (Example VI); assay type: physicochemical
# Description: To confirm that impurities observed in sugammadex sodium-containing solutions could be at least in part a result of oxidative degradation, sugammadex sodium as a solution in […] was subjected to an atmosphere of either 0.01% H2O2 for one hour or to an atmosphere of 0.002% H2O2 for five hours. S-oxide diastereomer-1 impurity, s-oxide diastereomer-2 impurity, impurity at ˜1.12 RRT, mono chloro impurity, unknown impurities, and mono hydroxyl impurity concentrations were measured using HPLC technique as described in Example VII after the first hour of 0.01% H2O2 exposure and after the first, fourth, and fifth hour of 0.002% H2O2 exposure.
# as §1, §2, §3, §4, §5, §6, §7, §8, §9, §10, §11
structure (smiles),measurement,setting,value
O=C([O-])CCSC[C@H]1O[C@@H]2O[C@H]3[C@H](O)[C@@H](O)[C@@H](O[C@H]4[C@H](O)[C@@H](O)[C@@H](O[C@H]5[C@H](O)[C@@H](O)[C@@H](O[C@H]6[C@H](O)[C@@H](O)[C@@H](O[C@H]7[C@H](O)[C@@H](O)[C@@H](O[C@H]8[C@H](O)[C@@H](O)[C@@H](O[C@H]9[C@H](O)C(O)[C@@H](O[C@H]1[C@H](O)[C@H]2O)O[C@@H]9CSCCC(=O)[O-])O[C@@H]8CSCCC(=O)[O-])O[C@@H]7CSCCC(=O)[O-])O[C@@H]6CSCCC(=O)[O-])O[C@@H]5CSCCC(=O)[O-])O[C@@H]4CSCCC(=O)[O-])O[C@@H]3CSCCC(=O)[O-].[Na+].[Na+].[Na+].[Na+].[Na+].[Na+].[Na+].[Na+] (stereo partly drawn) [sugammadex sodium],(Excluding Monohydroxy impurity),[1]; after fifth day,0.03 % impurity
same,Highest Unknown impurity,[1]; after fifth day,7.18 % impurity
same,Impurity at ~1.12 RRT,[1]; after fifth day,0.10 % impurity
same,Mono chloro impurity,[1]; after fifth day,0.03 % impurity
same,Other total impurities,[1]; after fifth day,0.80 % impurity
same,S-oxide diastereomer-1 impurity,[1]; after fifth day,0.16 % impurity
same,S-oxide diastereomer-2 impurity,[1]; after fifth day,0.21 % impurity
same,Total impurities,[1]; after fifth day,8.48 % impurity
same,(Excluding Monohydroxy impurity),[1]; after first day,0.03 % impurity
same,Highest Unknown impurity,[1]; after first day,4.44 % impurity
same,Impurity at ~1.12 RRT,[1]; after first day,0.10 % impurity
same,Mono chloro impurity,[1]; after first day,0.04 % impurity
same,Other total impurities,[1]; after first day,0.71 % impurity
same,S-oxide diastereomer-1 impurity,[1]; after first day,0.12 % impurity
same,S-oxide diastereomer-2 impurity,[1]; after first day,0.17 % impurity
same,Total impurities,[1]; after first day,5.58 % impurity
same,(Excluding Monohydroxy impurity),[1]; after tenth day,0.02 % impurity
same,Highest Unknown impurity,[1]; after tenth day,15.04 % impurity
same,Impurity at ~1.12 RRT,[1]; after tenth day,0.08 % impurity
same,Mono chloro impurity,[1]; after tenth day,0.03 % impurity
same,Other total impurities,[1]; after tenth day,0.85 % impurity
same,S-oxide diastereomer-1 impurity,[1]; after tenth day,0.48 % impurity
same,S-oxide diastereomer-2 impurity,[1]; after tenth day,0.42 % impurity
same,Total impurities,[1]; after tenth day,16.91 % impurity
same,(Excluding Monohydroxy impurity),[1]; after third day,0.03 % impurity
same,Highest Unknown impurity,[1]; after third day,5.34 % impurity
same,Impurity at ~1.12 RRT,[1]; after third day,0.10 % impurity
same,Mono chloro impurity,[1]; after third day,0.03 % impurity
same,Other total impurities,[1]; after third day,0.79 % impurity
same,S-oxide diastereomer-1 impurity,[1]; after third day,0.14 % impurity
same,S-oxide diastereomer-2 impurity,[1]; after third day,0.20 % impurity
same,Total impurities,[1]; after third day,6.59 % impurity
same,Impurities generated via thermal degradation,[1]; ten days,"at least s-oxide diastereomer-1 impurity, s-oxide diastereomer-2 impurity, and unknown impurities are generated via thermal degradation"
same,(Excluding Monohydroxy impurity),"[2]; 0.002% H2O2, after fifth hour",0.03 % impurity
same,Highest Unknown impurity,"[2]; 0.002% H2O2, after fifth hour",0.07 % impurity
same,Impurity at ~1.12 RRT,"[2]; 0.002% H2O2, after fifth hour",0.09 % impurity
same,Mono chloro impurity,"[2]; 0.002% H2O2, after fifth hour",0.03 % impurity
same,Other total impurities,"[2]; 0.002% H2O2, after fifth hour",0.82 % impurity
same,S-oxide diastereomer-1 impurity,"[2]; 0.002% H2O2, after fifth hour",4.11 % impurity
same,S-oxide diastereomer-2 impurity,"[2]; 0.002% H2O2, after fifth hour",5.02 % impurity
same,Total impurities,"[2]; 0.002% H2O2, after fifth hour",10.14 % impurity
same,(Excluding Monohydroxy impurity),"[2]; 0.002% H2O2, after first hour",0.03 % impurity
same,Highest Unknown impurity,"[2]; 0.002% H2O2, after first hour",0.07 % impurity
same,Impurity at ~1.12 RRT,"[2]; 0.002% H2O2, after first hour",0.10 % impurity
same,Mono chloro impurity,"[2]; 0.002% H2O2, after first hour",0.04 % impurity
same,Other total impurities,"[2]; 0.002% H2O2, after first hour",0.31 % impurity
same,S-oxide diastereomer-1 impurity,"[2]; 0.002% H2O2, after first hour",1.20 % impurity
same,S-oxide diastereomer-2 impurity,"[2]; 0.002% H2O2, after first hour",1.47 % impurity
same,Total impurities,"[2]; 0.002% H2O2, after first hour",3.20 % impurity
same,(Excluding Monohydroxy impurity),"[2]; 0.002% H2O2, after fourth hour",0.02 % impurity
same,Highest Unknown impurity,"[2]; 0.002% H2O2, after fourth hour",0.07 % impurity
same,Impurity at ~1.12 RRT,"[2]; 0.002% H2O2, after fourth hour",0.09 % impurity
same,Mono chloro impurity,"[2]; 0.002% H2O2, after fourth hour",0.03 % impurity
same,Other total impurities,"[2]; 0.002% H2O2, after fourth hour",0.65 % impurity
same,S-oxide diastereomer-1 impurity,"[2]; 0.002% H2O2, after fourth hour",3.42 % impurity
same,S-oxide diastereomer-2 impurity,"[2]; 0.002% H2O2, after fourth hour",4.18 % impurity
same,Total impurities,"[2]; 0.002% H2O2, after fourth hour",8.45 % impurity
same,(Excluding Monohydroxy impurity),"[2]; 0.01% H2O2, after first hour",0.02 % impurity
same,Highest Unknown impurity,"[2]; 0.01% H2O2, after first hour",3.07 % impurity
same,Impurity at ~1.12 RRT,"[2]; 0.01% H2O2, after first hour",0.08 % impurity
same,Mono chloro impurity,"[2]; 0.01% H2O2, after first hour",0.03 % impurity
same,Other total impurities,"[2]; 0.01% H2O2, after first hour",3.66 % impurity
same,S-oxide diastereomer-1 impurity,"[2]; 0.01% H2O2, after first hour",10.64 % impurity
same,S-oxide diastereomer-2 impurity,"[2]; 0.01% H2O2, after first hour",12.89 % impurity
same,Total impurities,"[2]; 0.01% H2O2, after first hour",30.36 % impurity
same,Impurities generated via oxidation,[2]; 0.01% H2O2 one hour or 0.002% H2O2 five hours,"at least s-oxide diastereomer-1 impurity, s-oxide diastereomer-2 impurity, and unknown impurities are generated via oxidation"
